Source: patent US20230212120A1, “SMALL MOLECULE INHIBITORS OF GRK5 AND GRK5 SUBFAMILY MEMBERS AND USES THEREOF” (The Regents of the University of Michigan, priority 2020, published 2023)
In brackets after ≈: the same amount, converted by molar mass. Several values for one entry are separate records, joined by “and”; a condition that tells them apart may be missing. Equal values may be shown once. Read-outs that look alike come from different tables or passages of the source. One block for each compound: values may come before it.

Tests used:
bovine GRK2 = biological target: T1, bovine GRK2 (Bos taurus, UniProt P21146); experiment: radiometric GRK2 inhibition assay (tubulin phosphorylation)
T1 sequence (P21146 1-689): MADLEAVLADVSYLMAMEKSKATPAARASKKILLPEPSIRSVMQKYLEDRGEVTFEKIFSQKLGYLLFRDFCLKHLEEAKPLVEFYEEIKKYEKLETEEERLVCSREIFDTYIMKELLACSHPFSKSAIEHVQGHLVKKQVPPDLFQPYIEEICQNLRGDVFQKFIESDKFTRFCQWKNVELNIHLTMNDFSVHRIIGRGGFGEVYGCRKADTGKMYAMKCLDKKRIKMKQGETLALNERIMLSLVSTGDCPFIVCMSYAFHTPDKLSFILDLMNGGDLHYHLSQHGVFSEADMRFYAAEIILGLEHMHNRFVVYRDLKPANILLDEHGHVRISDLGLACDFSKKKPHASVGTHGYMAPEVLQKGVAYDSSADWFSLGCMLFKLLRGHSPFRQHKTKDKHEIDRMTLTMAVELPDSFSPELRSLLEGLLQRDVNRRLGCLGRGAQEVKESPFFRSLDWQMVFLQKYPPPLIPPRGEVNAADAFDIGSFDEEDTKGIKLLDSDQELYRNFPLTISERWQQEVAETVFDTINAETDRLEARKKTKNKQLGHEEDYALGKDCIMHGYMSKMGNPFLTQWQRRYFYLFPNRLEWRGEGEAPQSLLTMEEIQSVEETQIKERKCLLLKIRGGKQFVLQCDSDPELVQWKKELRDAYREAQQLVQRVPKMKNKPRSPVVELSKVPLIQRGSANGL

PKA = PKA (Homo sapiens, UniProt P17612); experiment: PKA inhibition assay (ADP-Glo); assay type: biochemical
Experimental: The PKA inhibition assays were performed with the ADP-Glo system (Promega Corporation) according to the manufactory's instruction. […] After the initial reaction, ADP-Glo reagent was added to the reaction and allowed to incubate for an additional 40 min. Lastly, the kinase detection reagent was added and allowed to incubate for 30 min, and the luminescence was measured with a FlexStation 3 Multi-mode Microplate Reader (Molecular Devices). All data was analyzed in the same way as GRK inhibition assay. Experiments were performed three times in duplicate.
Standard control compounds are run during each assay to assess consistency across time, experimenters, and subtle changes in assay conditions that are sometimes required to keep some of the compounds soluble and disperse (such as through addition of DDM or 3% DMSO). Paroxetine were used as controls for GRK2 and PKA, and CCG215022 for GRK5.

[1] = Thermodynamic solubility (Analiza Inc.); assay type: physicochemical; conditions: for pH After Assay / solubility thermodynamic: Water; for pH After Assay: solubility assay; for solubility thermodynamic: n=1
Source text: Experimental data collected by Analiza Inc. Experimental values represent an average of n=1 experiments.

GRK5 = GRK5 (Homo sapiens, UniProt P34947); experiment: radiometric GRK5 inhibition assay (tubulin phosphorylation)
GRK5, sequence (P34947 whole entry): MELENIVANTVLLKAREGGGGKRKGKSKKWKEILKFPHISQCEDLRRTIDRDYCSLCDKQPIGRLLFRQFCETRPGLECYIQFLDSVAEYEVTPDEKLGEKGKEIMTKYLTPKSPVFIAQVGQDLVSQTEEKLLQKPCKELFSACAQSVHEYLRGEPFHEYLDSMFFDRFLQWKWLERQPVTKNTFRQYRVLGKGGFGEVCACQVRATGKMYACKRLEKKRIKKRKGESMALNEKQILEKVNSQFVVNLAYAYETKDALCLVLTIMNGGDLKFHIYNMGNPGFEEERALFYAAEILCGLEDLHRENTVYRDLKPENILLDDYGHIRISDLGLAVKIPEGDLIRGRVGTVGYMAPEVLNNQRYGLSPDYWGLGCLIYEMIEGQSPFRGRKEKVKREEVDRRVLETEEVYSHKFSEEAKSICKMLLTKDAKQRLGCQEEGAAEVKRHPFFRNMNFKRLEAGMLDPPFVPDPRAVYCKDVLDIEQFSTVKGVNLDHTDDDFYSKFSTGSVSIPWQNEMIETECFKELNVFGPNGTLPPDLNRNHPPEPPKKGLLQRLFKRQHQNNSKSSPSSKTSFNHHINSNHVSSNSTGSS

[2] = read-out: GRK2 IC50, Table 1, μM ± SD
[3] = read-out: GRK2 IC50, Table 2, μM ± SD

- IC50 (bovine GRK2; [3]): 19 ± 10 µM
- IC50 (PKA; Table 2, μM ± SD): > 250 µM
SMILES: Cc1[nH]c(/C=C2\C(=O)Nc3ccc(C(=O)N[C@H](C)c4cccc(Cl)c4)cc32)c(C)c1NC(=O)CCl [Compound 9m, (R,Z)-3-((4-(2-chloroacetamido)-3,5-dimethyl-1H-pyrrol-2-yl)methylene)-N-(1-(3-chlorophenyl)ethyl)-2-oxoindoline-5-carboxamide]

- IC50 (bovine GRK2; [3]): 1.7 ± 2 µM
- aqueous solubility relative to 9e ([1]; compared to 9e): less than 2 fold
SMILES: Cc1[nH]c(/C=C2\C(=O)Nc3ccc(C(=O)N[C@H](C)c4ccncc4)cc32)c(C)c1NC(=O)CCl [Compound 9k, (R,Z)-3-((4-(2-chloroacetamido)-3,5-dimethyl-1H-pyrrol-2-yl)methylene)-2-oxo-N-(1-(pyridin-4-yl)ethyl)indoline-5-carboxamide]

- IC50 (bovine GRK2; [3]): 11 ± 6 µM
- IC50 (PKA; Table 2, μM ± SD): > 250 µM
- GRK2/GRK5 (GRK5; Table 2, ratio of IC50 values): 360
SMILES: Cc1cccc([C@@H](C)NC(=O)c2ccc3c(c2)/C(=C/c2[nH]c(C)c(NC(=O)CCl)c2C)C(=O)N3)c1 [Compound 9i, (R,Z)-3-((4-(2-chloroacetamido)-3,5-dimethyl-1H-pyrrol-2-yl)methylene)-2-oxo-N-(1-(m-tolyl)ethyl)indoline-5-carboxamide]

- IC50 (bovine GRK2; [2]): 120 ± 80 µM
SMILES: Cc1[nH]c(/C=C2\C(=O)Nc3ccc(C(=O)N[C@H](C)c4ccccc4)cc32)c(C)c1NC(=O)/C(C#N)=C/C(C)(C)C [Compound 10a, (Z)-3-((4-((E)-2-cyano-4,4-dimethylpent-2-enamido)-3,5-dimethyl-1H-pyrrol-2-yl)methylene)-2-oxo-N—((R)-1-phenylethyl)indoline-5-carboxamide]

- IC50 (bovine GRK2; [3]): 15 ± 7 µM
- IC50 (PKA; Table 2, μM ± SD): 69 ± 10 µM
SMILES: Cc1[nH]c(/C=C2\C(=O)Nc3ccc(C(=O)NC4(c5ccccc5)COC4)cc32)c(C)c1NC(=O)CCl [Compound 9t, (Z)-3-((4-(2-chloroacetamido)-3,5-dimethyl-1H-pyrrol-2-yl)methylene)-2-oxo-N-(3-phenyloxetan-3-yl)indoline-5-carboxamide]

- IC50 (bovine GRK2; [2]): 87 ± 30 µM
SMILES: C=CC(=O)Nc1c(C)[nH]c(/C=C2\C(=O)Nc3ccc(C(=O)N[C@H](C)c4ccccc4)cc32)c1C [Compound 9b, (R,Z)-3-((4-acrylamido-3,5-dimethyl-1H-pyrrol-2-yl)methylene)-2-oxo-N-(1-phenylethyl)indoline-5-carboxamide]

- IC50 (bovine GRK2; [3]): 3.6 ± 2 µM
SMILES: Cc1[nH]c(/C=C2\C(=O)Nc3ccc(C(=O)N[C@H](C)c4ccc(F)cc4)cc32)c(C)c1NC(=O)CBr [Compound 9p, (R,Z)-3-((4-(2-bromoacetamido)-3,5-dimethyl-1H-pyrrol-2-yl)methylene)-N-(1-(4-fluorophenyl)ethyl)-2-oxoindoline-5-carboxamide]

- IC50 (bovine GRK2; [2]): 280 ± 110 µM
SMILES: C=CS(=O)(=O)Nc1c(C)[nH]c(/C=C2\C(=O)Nc3ccc(C(=O)N[C@H](C)c4ccccc4)cc32)c1C [Compound 9c, (R,Z)-3-((3,5-dimethyl-4-(vinylsulfonamido)-1H-pyrrol-2-yl)methylene)-2-oxo-N-(1-phenylethyl)indoline-5-carboxamide]

- IC50 (bovine GRK2): > 250 µM
SMILES: Cc1[nH]c(/C=C2\C(=O)Nc3ccc(C(=O)N[C@H](C)c4ccccc4)cc32)c(C)c1NC(=O)C1CO1 (stereo partly drawn) [Compound 10l, (Z)-3-((3,5-dimethyl-4-(oxirane-2-carboxamido)-1H-pyrrol-2-yl)methylene)-2-oxo-N—((R)-1-phenylethyl)indoline-5-carboxamide]

- IC50 (bovine GRK2; [2]): 17 ± 10 µM
- pH After Assay [1]: 5
- solubility thermodynamic ([1]; thermodynamic from solid): 125 µM and 64 µg/mL
SMILES: Cc1[nH]c(/C=C2\C(=O)Nc3ccc(C(=O)N[C@H](C)c4ccccc4)cc32)c(C)c1NC(=O)/C=C/CN(C)C [Compound 9f, (Z)-3-((4-((E)-4-(dimethylamino)but-2-enamido)-3,5-dimethyl-1H-pyrrol-2-yl)methylene)-2-oxo-N—((R)-1-phenylethyl)indoline-5-carboxamide]

- IC50 (bovine GRK2; [2]): 6.7 ± 5 µM
- IC50 (PKA; Table 1, μM ± SD): > 250 µM
SMILES: Cc1[nH]c(/C=C2\C(=O)Nc3ccc(C(=O)N[C@H](C)c4ccccc4)cc32)c(C)c1NC(=O)C(O)CCl (stereo partly drawn) [Compound 9h, (Z)-3-((4-(3-chloro-2-hydroxypropanamido)-3,5-dimethyl-1H-pyrrol-2-yl)methylene)-2-oxo-N—((R)-1-phenylethyl)indoline-5-carboxamide]

- IC50 (bovine GRK2; [3]): 9.6 ± 5 µM
- solubility thermodynamic [1]: 262 µM (≈ 125 µg/mL)
- pH After Assay [1]: 4
SMILES: Cc1[nH]c(/C=C2\C(=O)Nc3ccc(C(=O)N[C@H](C)c4ccccn4)cc32)c(C)c1NC(=O)CCl [Compound 9l, (R,Z)-3-((4-(2-chloroacetamido)-3,5-dimethyl-1H-pyrrol-2-yl)methylene)-2-oxo-N-(1-(pyridin-2-yl)ethyl)indoline-5-carboxamide]

Second part, the compound before the results:

SMILES: Cc1[nH]c(/C=C2\C(=O)Nc3ccc(C(=O)N[C@H](C)c4ccccc4)cc32)c(C)c1[N+](=O)[O-] [Compound 7a, (R,Z)-3-((3,5-dimethyl-4-nitro-1H-pyrrol-2-yl)methylene)-2-oxo-N-(1-phenylethyl)indoline-5-carboxamide]
- IC50 (bovine GRK2; [2]): 7.2 ± 3 µM

SMILES: CC1=C(C(=O)Nc2ccc3[nH]ncc3c2)C(c2ccc(F)c(C(=O)NCc3ccccn3)c2)NC(=O)N1 (centres unmarked) [CCG 215022, reference compound]
- IC50 (PKA; Table 1, μM ± SD): > 250 µM

SMILES: Cc1[nH]c(/C=C2\C(=O)Nc3ccc(C(=O)N[C@H](C)c4ccc(Cl)cc4)cc32)c(C)c1NC(=O)CCl [Compound 9o, (R,Z)-3-((4-(2-chloroacetamido)-3,5-dimethyl-1H-pyrrol-2-yl)methylene)-N-(1-(4-chlorophenyl)ethyl)-2-oxoindoline-5-carboxamide]
- IC50 (bovine GRK2; [3]): 0.7 ± 0.2 µM
- pH After Assay [1]: 4
- solubility thermodynamic ([1]; thermodynamic from solid): 205 µM and 105 µg/mL

SMILES: C=CCCNC(=O)c1c(C)[nH]c(/C=C2\C(=O)Nc3ccc(C(=O)N[C@H](C)c4ccccc4)cc32)c1C [Compound 5f, (R,Z)-3-((4-(but-3-en-1-ylcarbamoyl)-3,5-dimethyl-1H-pyrrol-2-yl)methylene)-2-oxo-N-(1-phenylethyl)indoline-5-carboxamide]
- IC50 (bovine GRK2; [2]): 630 ± 200 µM
- IC50 (GRK5): 1.9 ± 0.05 µM
- GRK2/GRK5 (GRK5; Table 1, ratio of IC50 values): 330

SMILES: Fc1ccc([C@@H]2CCNC[C@H]2COc2ccc3c(c2)OCO3)cc1 [paroxetine, reference compound]
- IC50 (PKA; Table 1, μM ± SD): 850 ± 400 µM

SMILES: CCN(CC)CCNC(=O)c1c(C)[nH]c(/C=C2\C(=O)Nc3ccc(C(=O)N[C@H](C)c4ccccc4)cc32)c1C [Compound 5a, (R,Z)-3-((4-((2-(diethylamino)ethyl)carbamoyl)-3,5-dimethyl-1H-pyrrol-2-yl)methylene)-2-oxo-N-(1-phenylethyl)indoline-5-carboxamide]
- IC50 (bovine GRK2; [2]): 1.1 ± 0.7 µM
- IC50 (PKA; Table 1, μM ± SD): > 250 µM

SMILES: Cc1ccc([C@@H](C)NC(=O)c2ccc3c(c2)/C(=C/c2[nH]c(C)c(NC(=O)CCl)c2C)C(=O)N3)cc1 [Compound 9n, (R,Z)-3-((4-(2-chloroacetamido)-3,5-dimethyl-1H-pyrrol-2-yl)methylene)-2-oxo-N-(1-(p-tolyl)ethyl)indoline-5-carboxamide]
- IC50 (bovine GRK2; [3]): 2.1 ± 1 µM
- pH After Assay [1]: 2.5
- solubility thermodynamic ([1]; thermodynamic from solid): 252 µM and 124 µg/mL
- GRK2/GRK5 (GRK5; Table 2, ratio of IC50 values): 3

SMILES: Cc1[nH]c(/C=C2\C(=O)Nc3ccc(C(=O)N[C@H](C)c4ccccc4)cc32)c(C)c1NC(=O)CCl [Compound 9e, (R,Z)-3-((4-(2-chloroacetamido)-3,5-dimethyl-1H-pyrrol-2-yl)methylene)-2-oxo-N-(1-phenylethyl)indoline-5-carboxamide]
- IC50 (bovine GRK2; [2]): 350 ± 100 µM
- pH After Assay [1]: 5
- solubility thermodynamic ([1]; thermodynamic from solid): 75.1 µM and 35.7 µg/mL
- IC50 (PKA; Table 1, μM ± SD): > 250 µM

SMILES: C=CCNC(=O)c1c(C)[nH]c(/C=C2\C(=O)Nc3ccc(C(=O)N[C@H](C)c4ccccc4)cc32)c1C [Compound 5d, (R,Z)-3-((4-(allylcarbamoyl)-3,5-dimethyl-1H-pyrrol-2-yl)methylene)-2-oxo-N-(1-phenylethyl)indoline-5-carboxamide]
- IC50 (bovine GRK2; [2]): 22 ± 10 µM
- IC50 (PKA; Table 1, μM ± SD): > 250 µM

SMILES: CCN(CC)CCNC(=O)c1c(C)[nH]c(/C=C2\C(=O)Nc3ccc(C(=O)N[C@@H](C)c4ccccc4)cc32)c1C [Compound 5b, (S,Z)-3-((4-((2-(diethylamino)ethyl)carbamoyl)-3,5-dimethyl-1H-pyrrol-2-yl)methylene)-2-oxo-N-(1-phenylethyl)indoline-5-carboxamide]
- IC50 (bovine GRK2; [2]): 44 ± 18 µM
